{
  "source": "patent US20180036270A1",
  "about": "“A METHOD OF PROTECTING AGAINST CARBONYL STRESS INDUCED ISCHEMIA-REPERFUSION INJURY IN THE DIABETIC BRAIN VIA ADMINISTRATION OF N-ACETYLCYSTEINE” (Board of Supervisors of Louisiana State University and …, priority 2015, published 2018)",
  "key": {"[1]": {"system": "brain GSH and cysteine contents", "test": "Brain GSH and cysteine by HPLC", "type": "in vivo, mouse", "settings": "vehicle mice given BSO, inhibition of GSH synthesis", "text": "Four-week-old male C57BL/6J mice, weighing 18-20 g, were purchased from Jackson Laboratory. These mice were maintained at the Animal Facility of the Louisiana State University Health Sciences Center—Shreveport. Animal care and use in the experiments follow the guidelines in the Guide for the Care and Use of Laboratory Animals, published by the US National Institutes of Health. Following adaptation for 1 week, the mice were divided randomly into 4 groups: non-treated sham operation group (NT-sham group, n=6), non-treated I/R group (NT-I/R group, n=5), vehicle I/R group (Veh-I/R group, n=24), and streptozotocin I/R group (STZ-I/R group, n=19). […] On day 7, mice whose plasma glucose was more than 300 mg/dl were deemed to be diabetic. From diabetes onset at week 1, a group of diabetic mice were given 0.2 mM NAC in the drinking water for 3 weeks (n=3; a total of 4 weeks diabetes, 3 weeks NAC) or 1 week (n=9; a total of 2 weeks diabetes, 1 week NAC). Veh-I/R mice were injected with citrate buffer for consecutive 5 days, and a group of Veh-treated mice were given 0.2 mM NAC for 2 weeks in the drinking water before the ischemia operation (Veh+NAC group, n=8). Another Veh-treated mice were injected (intraperitoneally, 12 hr interval) with 0.5M BSO 24 h before the ischemia operation and during the 24 h reperfusion period (Veh+BSO group, n=10). All mice were 9 weeks old at sacrifice.\nTissue contents of GSH, cysteine and γGC were determined by high-performance liquid chromatography (HPLC). […] Separation of GSH, cysteine and γGC derivatives whose peaks were detected at 365 nm wavelength was performed on a 250×4.6-mm Alltech Lichrosorb NH2 10 μm anion-exchange column. GSH, cysteine and γGC contents were quantified by comparison to standards derivatized in the same manner. Protein pellets were dissolved in 1 M NaOH for protein quantitation and GSH, cysteine and γGC concentrations were expressed as nanomoles per mg protein."}, "[2]": {"target": "T1, glutamate cysteine ligase (GCL) (Homo sapiens, UniProt P48506)", "T1 sequence (P48506 1-637)": "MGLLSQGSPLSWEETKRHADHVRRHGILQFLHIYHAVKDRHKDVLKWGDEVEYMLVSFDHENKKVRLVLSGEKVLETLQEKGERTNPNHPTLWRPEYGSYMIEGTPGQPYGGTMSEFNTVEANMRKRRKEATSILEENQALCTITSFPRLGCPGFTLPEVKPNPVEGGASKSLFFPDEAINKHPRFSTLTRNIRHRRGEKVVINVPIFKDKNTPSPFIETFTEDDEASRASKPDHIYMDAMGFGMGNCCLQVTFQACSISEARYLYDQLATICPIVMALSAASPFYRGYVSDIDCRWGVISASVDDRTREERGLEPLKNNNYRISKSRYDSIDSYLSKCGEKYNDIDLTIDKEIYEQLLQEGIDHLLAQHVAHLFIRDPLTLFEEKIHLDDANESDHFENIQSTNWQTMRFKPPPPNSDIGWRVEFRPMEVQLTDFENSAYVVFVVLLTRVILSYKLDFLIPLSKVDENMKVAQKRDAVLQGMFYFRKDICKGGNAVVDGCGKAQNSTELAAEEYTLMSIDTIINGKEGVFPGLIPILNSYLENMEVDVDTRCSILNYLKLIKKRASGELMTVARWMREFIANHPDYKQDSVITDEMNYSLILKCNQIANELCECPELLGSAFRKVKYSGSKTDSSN", "T1 sequence (P48507 1-274 partner)": "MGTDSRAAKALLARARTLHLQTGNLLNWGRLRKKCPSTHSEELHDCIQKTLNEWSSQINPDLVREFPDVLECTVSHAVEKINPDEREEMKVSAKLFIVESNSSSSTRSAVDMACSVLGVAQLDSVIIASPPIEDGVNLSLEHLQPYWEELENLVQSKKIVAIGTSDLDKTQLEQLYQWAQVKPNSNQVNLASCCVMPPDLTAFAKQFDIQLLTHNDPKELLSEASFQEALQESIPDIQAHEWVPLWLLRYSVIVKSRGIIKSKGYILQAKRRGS", "settings": "after brain ischemia/reperfusion, in the presence of BSO; cited from earlier work"}, "[3]": {"system": "human brain microvascular endothelial cell", "test": "Endothelial barrier permeability by transendothelial electrical resistance", "type": "cell-based", "settings": "MG alone", "procedure": "Moreover, treatment with 100 μM MG in rat thoracic aortic rings for 24 h decreases acetylcholine-induced vascular relaxation via a reduction in p-eNOS (Ser1177) and p-AMPKα (Thr172). MG can reduce endothelial angiogenesis through RAGE-mediated, ONOO(^−)-dependent and autophagy-induced VEGFR2 degradation. […] This is exacerbated by GSH synthesis inhibition and prevented by NAC. The enhanced MG concentration in diabetic patients can also directly contribute to the platelet dysfunction associated with diabetes. Platelet dysfunction is characterized by hyperaggregability and reduced thrombus stability via potentiating thrombin-induced platelet aggregation and dense granule release, but inhibiting platelet spreading on fibronectin and collagen. Given that endothelial dysfunction and enhanced platelet activation could promote stroke, these studies indicate that MG can contribute to ischemic brain injury."}, "[4]": {"system": "rat thoracic aortic rings", "settings": "100 μM MG for 24 h; cited from earlier work"}, "Akita diabetic mouse": {"system": "Akita diabetic mouse", "test": "Akita model: platelet-neutrophil aggregates and thrombosis onset and cessation", "type": "in vivo", "settings": "Akita diabetic mice, insulin treatment", "text": "FIGS. 28A-28C are three bar graphs showing percent platelet-neutrophil aggregate formation (FIG. 28A), time to onset of thrombosis (FIG. 28B), and time to cessation of thrombosis (FIG. 28C) for Akita non-diabetic mouse, Akita diabetic mouse, Akita diabetic mouse plus insulin, and Akita diabetic mouse plus insulin and NAC; and\nAkita model: like STZ model, shown in FIGS. 28A-28C percent platelet-neutrophil aggregate formation is increased, and time to onset and cessation in thrombosis are accelerated in arterioles and venules. Again this reiterates that the effects of diabetes may be “global” rather than confined to one type/cause of diabetes. […] The data evidences that glucose control, which is the current treatment, is not completely effective and that co-treatment with NAC is very effective. […] It appears that insulin and NAC are additive/synergistic."}},
  "data": [
    {"compound": "CCCCS(=N)(=O)CCC(N)C(=O)O", "note": "[BSO, L-buthionine sulfoximine]", "values": [
      {"measurement": "brain cysteine levels", "setting": "[1]", "value": "higher free cysteine levels"},
      {"measurement": "brain infarction and edema", "setting": "[2]", "value": "exacerbated further"}
    ]},
    {"compound": "CC(=O)C=O", "note": "[MG, Methylglyoxal]", "values": [
      {"measurement": "endothelial barrier permeability (loss of transendothelial electrical resistance)", "setting": "[3]", "value": "increase human brain microvascular endothelial cell barrier permeability"},
      {"measurement": "acetylcholine-induced vascular relaxation", "setting": "[4]", "value": "decreases"}
    ]},
    {"compound": "insulin", "values": [
      {"measurement": "platelet-neutrophil aggregate formation", "setting": "Akita diabetic mouse", "value": "reversal"},
      {"measurement": "thrombosis cessation time (time to complete occlusion of the vessel)", "setting": "Akita diabetic mouse", "value": "did not correct"},
      {"measurement": "thrombosis onset time in arterioles", "setting": "Akita diabetic mouse", "value": "reversal"},
      {"measurement": "thrombosis onset time in venules", "setting": "Akita diabetic mouse", "value": "did not correct"}
    ]}
  ]
}
